Experimental data published in US20080171716A1, “NUCLEIC ACID MODULATION OF TOLL-LIKE RECEPTOR-MEDIATED IMMUNE STIMULATION” (Protiva Biotherapeutics, Inc., priority 2006, published 2008).
m = 2'-O-methyl; r = 2'-OH (RNA)

Key:
TLR7/8 = assay: Cytokine induction in human PBMCs by immunostimulatory RNA, alone or co-formulated with modified ssRNA in the same SNALP/lipid particle; assay type: cell-based; details: for IFN-α induction by NP ssRNA when co-formulated: 0.5 μg/ml NP ssRNA; for IFN-α induction by NP ssRNA when co-formulated / immunostimulatory effects (IFN-α induction) of ApoB antisense ssRNA when co-formulated: 1:1 molar ratio; for cytokine production from human PBMCs when co-formulated with immunostimulatory RNA: co-formulated with immunostimulatory ssRNA; for IFN-α levels induced by β-gal antisense ssRNA when co-encapsulated / IL-6 levels induced by β-gal antisense ssRNA when co-encapsulated: equimolar amounts in the same SNALP; for IFN-α production induced by the RNA alone: lipid-formulated RNA alone, doses 0.1 to 3 μg/ml
Procedure: (§1) All RNA molecules used in this study were heated at 90° C. for 3 min. and then placed at 37° C. for 60 min. Non-denaturing PAGE analysis on a 20% polyacrylamide gel was performed to confirm that ssRNA molecules were intact and that no duplexes had formed upon heating. The RNA molecules were encapsulated in a SNALP formulation comprising PEG-cDMA:DLinDMA:cholesterol:DSPC in a 2:40:48:10 mol % ratio (2:40 SNALP), prepared using a syringe press process.
(§2) Fresh human peripheral blood mononuclear cells (PBMCs) were isolated and seeded at about 3×10^5 cells/well in a total volume of 180 μl. Next, 20 μl of the appropriate SNALP diluted in PBS or 10 μl of naked TLR agonist were added to the PBMCs. For time course experiments, PBMCs were pretreated with UmodS ssRNA or a control and the appropriate naked TLR agonist was added at 0, 0.5, or 2 hours after pretreatment. When the SNALP and naked TLR agonist were added separately, the SNALP was added first followed by the naked TLR agonist. At t=24 hr., the cell supernatant was harvested and IFN-α and/or IL-6 levels were determined using ELISA.
The ssRNA molecules used in this study were heated at 90° C. for 3 min. and then placed at 37° C. for 60 min to disrupt any potential secondary structure. Non-denaturing PAGE analysis on a 20% polyacrylamide gel was performed to confirm that ssRNA molecules were intact and that no duplexes had formed upon heating. siRNA duplexes were prepared by annealing equimolar concentrations of two deprotected and desalted ssRNA oligonucleotides using standard procedures. Formation of annealed siRNA duplexes was confirmed by non-denaturing PAGE analysis on a 20% polyacrylamide gel. The RNA molecules were encapsulated in a 2:40 SNALP formulation prepared using a syringe press process.
Fresh human peripheral blood mononuclear cells (PBMCs) were isolated and seeded at about 3×10^5 cells/well in a total volume of 180 μl. Next, 20 μl of the appropriate SNALP diluted in PBS were added to the PBMCs. At t=24 hr., the cell supernatant was harvested and IFN-α and/or IL-6 levels were determined using an enzyme-linked immunosorbent assay (ELISA). For example, IFN-α and IL-6 levels can be measured using a sandwich ELISA kit available from PBL Biomedical (Piscataway, N.J.) and eBioscience (San Diego, Calif.), respectively.
(§3) Lipid Encapsulation of RNA and ODN. RNA or ODN were encapsulated in liposomes by a process of spontaneous vesicle formation as described in Judge et al., supra, and Jeffs et al., Pharm. Res., 22:362-372 (2005).
(§4) Cell Isolation and Culture. Human PBMCs were isolated from whole blood of healthy donors by a standard Ficoll-Hypaque density centrifugation. Blood was diluted 1:1 with PBS, layered onto Ficoll-Paque Plus, and centrifuged at 1600 RPM for 30 min. PBMCs were washed in PBS twice followed by resuspension in complete media (RPMI 1640, 10% heat inactivated FBS, 2 mM L-glutamine, and 1% penicillin/streptomycin). PBMCs were plated at 2.5×10^5 cells/well in 96 well plates for cytokine induction assays.
(§5) Loxoribine (InvivoGen; San Diego, Calif.), polyIC (Sigma-Aldrich; St. Louis, Mo.), and formulated nucleic acids were diluted in PBS and added to either human PBMC or Flt3L DC cultures. Cells were incubated 24 h at 37° C. before supernatants were assayed for cytokines by ELISA.
(§6) Cytokine ELISA. All cytokines were quantified using sandwich ELISA kits according to the manufacturer's instructions. These were mouse and human IFN-α (PBL Biomedical; Piscataway, N.J.) and IL-6 (eBioscience; San Diego, Calif.).

TLR7 = target: T1, TLR7 (Homo sapiens, UniProt Q9NYK1); assay: Loxoribine (TLR7 agonist)-induced IFN-α/IL-6 production in human PBMCs; assay type: cell-based; details: SNALP-encapsulated ssRNA added before naked agonist, supernatant at 24 hr, ELISA
T1 construct: Human PBMCs were isolated from whole blood of healthy donors; endogenous in cells; host or cells: primary human PBMCs from healthy donors
T1 sequence (Q9NYK1 27-1049): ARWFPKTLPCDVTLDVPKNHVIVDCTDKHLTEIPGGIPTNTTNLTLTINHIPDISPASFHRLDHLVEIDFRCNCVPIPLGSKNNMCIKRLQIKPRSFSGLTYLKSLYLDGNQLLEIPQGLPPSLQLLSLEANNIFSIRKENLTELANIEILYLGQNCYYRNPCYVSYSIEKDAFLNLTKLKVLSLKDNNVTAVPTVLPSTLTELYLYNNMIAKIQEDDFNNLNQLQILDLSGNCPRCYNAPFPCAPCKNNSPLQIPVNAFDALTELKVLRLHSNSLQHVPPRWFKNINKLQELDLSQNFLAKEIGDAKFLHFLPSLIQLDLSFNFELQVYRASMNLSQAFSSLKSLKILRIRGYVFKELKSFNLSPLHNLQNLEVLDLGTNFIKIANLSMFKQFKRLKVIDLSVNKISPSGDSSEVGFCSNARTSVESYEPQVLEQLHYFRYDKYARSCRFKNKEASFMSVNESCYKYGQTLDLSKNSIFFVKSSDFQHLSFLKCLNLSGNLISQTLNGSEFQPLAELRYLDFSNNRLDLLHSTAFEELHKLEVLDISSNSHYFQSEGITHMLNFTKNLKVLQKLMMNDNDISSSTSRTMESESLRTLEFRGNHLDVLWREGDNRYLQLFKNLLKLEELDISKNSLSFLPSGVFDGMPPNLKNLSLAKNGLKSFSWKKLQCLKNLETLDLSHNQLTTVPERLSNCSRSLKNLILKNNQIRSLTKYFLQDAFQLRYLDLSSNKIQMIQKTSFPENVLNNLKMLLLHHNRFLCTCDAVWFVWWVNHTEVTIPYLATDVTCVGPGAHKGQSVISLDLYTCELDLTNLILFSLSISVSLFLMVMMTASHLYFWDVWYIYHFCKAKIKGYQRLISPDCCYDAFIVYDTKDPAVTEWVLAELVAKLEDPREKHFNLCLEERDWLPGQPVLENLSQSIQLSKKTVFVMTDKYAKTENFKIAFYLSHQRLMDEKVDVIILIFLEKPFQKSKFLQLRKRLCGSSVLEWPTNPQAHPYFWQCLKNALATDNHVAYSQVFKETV
Procedure: as §1, §2, §3, §4, §5, §6

[1] = human PBMCs, co-formulated in the same SNALP, 24 h

βgal-mA: 2′OMe-adenosine modified RNA: CUmACmACmAmAmAUCmAGCGmAUUUU (CUACACAAAUCAGCGAUUUU; 2'-O-methyl at A, RNA at CGU, backbone not given here)
IFN-α induction by NP ssRNA when co-formulated (TLR7/8; human PBMCs, 24 h): inhibits

βgal-mG: 2′OMe-guanosine modified RNA: CUACACAAAUCAmGCmGAUUUUU (CUACACAAAUCAGCGAUUUUU; sugars from the 5' end r12 m1 r1 m1 r6, backbone not given here)
IFN-α induction by NP ssRNA when co-formulated (TLR7/8; human PBMCs, 24 h): inhibits

β-gal [reference compound]
immunostimulatory effects (IFN-α induction) of ApoB antisense ssRNA when co-formulated (TLR7/8; [1]): high levels of IFN-α were still induced

polyUmod15: 2′OMe-uridine homopolymer of 15 nucleotides in length (UUUUUUUUUUUUUUU; all 2'-O-methyl, backbone not given here)
cytokine production from human PBMCs when co-formulated with immunostimulatory RNA (TLR7/8; human PBMCs): equally as effective at inhibiting cytokine production | IFN-α levels induced by β-gal antisense ssRNA when co-encapsulated (TLR7/8; human PBMCs, 24 h): significantly reduced | IL-6 levels induced by β-gal antisense ssRNA when co-encapsulated (TLR7/8; human PBMCs, 24 h): significantly reduced | IFN-α levels induced by β-gal antisense ssRNA when co-encapsulated (TLR7/8; human PBMCs, 24 h, listed as (mU)15): inhibit | IL-6 levels induced by naked loxoribine (TLR7): inhibited only IFN-α levels | level of IFN-α induced by naked loxoribine (TLR7): inhibited

ApoB antisense ssRNA: immunostimulatory antisense ssRNA: AUUGGUAUUCAGUGUGAUGACAC (chemistry not given here) [reference compound]
IFN-α production induced by the RNA alone (TLR7/8; human PBMC cultures): induced high levels of IFN-α | IFN-α production induced by ApoB antisense ssRNA in absence of modified ssRNA (TLR7/8; human PBMCs, SNALP, 24 hr): 5000 to 6000 pg/mL

Luc: unmodified Luc sense strand ssRNA: 5′GAUUAUGUCCGGUUAUGUAUU 3′ (sense GAUUAUGUCCGGUUAUGUAUU; RNA, backbone not given here) [reference compound]
immunostimulatory effects (IFN-α induction) of ApoB antisense ssRNA when co-formulated (TLR7/8; [1]): high levels of IFN-α were still induced

NP-mC: 2′OMe-cytidine RNA: GGAUmCUUAUUUmCUUmCGGAGUU (GGAUCUUAUUUCUUCGGAGUU; 2'-O-methyl at C, RNA at AGU, backbone not given here)
immunostimulatory effects (IFN-α induction) of ApoB antisense ssRNA when co-formulated (TLR7/8; [1]): do not inhibit

NP1496: unmodified NP1496 sense strand ssRNA: GGAUCUUAUUUCUUCGGAGUU (RNA, backbone not given here) [reference compound]
immunostimulatory effects (IFN-α induction) of ApoB antisense ssRNA when co-formulated (TLR7/8; [1]): high levels of IFN-α were still induced

NP1496 UmodS: influenza NP1496 sense strand ssRNA with 2′OMe uridines: GGAmUCmUmUAmUmUmUCmUmUCGGAGUU (sense GGAUCUUAUUUCUUCGGAGUU; sugars from the 5' end rrrmrmmrmmmrmmrrrrrrr, backbone not given here)
IFN-α production induced by the RNA alone (TLR7/8; […]): do not induce measurable IFN-α production | immunostimulatory effects of ApoB antisense ssRNA at molar excess of agonist (TLR7/8; human PBMCs, co-formulated in the same SNALP at 1:1, 1:2, or 1:4 molar ratio (up to 4-fold molar excess of agonist)): antagonized | immunostimulatory effects (IFN-α induction) of ApoB antisense ssRNA when co-formulated (TLR7/8; [1]): abolished | immunostimulatory effects (IFN-α induction) of ApoB antisense ssRNA when co-formulated (TLR7/8; human PBMCs, co-formulated in the same SNALP, 24 h, listed as NP-mU): abrogated | immunostimulatory effects (IFN-α induction) of ApoB siRNA duplex when co-formulated (TLR7/8; human PBMCs, co-formulated in the same SNALP, equimolar, 24 h): abrogated | IFN-α levels induced by β-gal antisense ssRNA when co-encapsulated (TLR7/8; human PBMCs, 24 h): abrogated

βgal-mC: 2′OMe-cytidine RNA: mCUAmCAmCAAAUmCAGmCGAUUUUU (CUACACAAAUCAGCGAUUUUU; 2'-O-methyl at C, RNA at AGU, backbone not given here)
IFN-α induction by NP ssRNA when co-formulated (TLR7/8; human PBMCs, 24 h): not | immunostimulatory effects (IFN-α induction) of ApoB antisense ssRNA when co-formulated (TLR7/8; [1]): do not inhibit

polyUmod10: 2′OMe-uridine homopolymer of 10 nucleotides in length (UUUUUUUUUU; all 2'-O-methyl, backbone not given here)
cytokine production from human PBMCs when co-formulated with immunostimulatory RNA (TLR7/8; human PBMCs): significantly reduced cytokine induction, although inhibition with these shorter oligonucleotides was not absolute | IFN-α levels induced by β-gal antisense ssRNA when co-encapsulated (TLR7/8; human PBMCs, 24 h): significantly reduced | IL-6 levels induced by β-gal antisense ssRNA when co-encapsulated (TLR7/8; human PBMCs, 24 h): significantly reduced | IFN-α levels induced by β-gal antisense ssRNA when co-encapsulated (TLR7/8; human PBMCs, 24 h, listed as (mU)10): inhibit
